Measured values: US8906925B2, “Pyrido[4,3-B]indoles containing rigid moieties” (Medivation Technologies, Inc., priority 2008, dated 2014)

What was measured:
histamine receptor H1 = histamine receptor H1 (Homo sapiens, UniProt P35367); assay: Histamine H1 radioligand binding ([3H]Pyrilamine); settings: read-out: Histamine Binding (1 μM) H1, percent inhibition of specific binding, 1 μM
Experimental: To evaluate in radioligand binding assays the activity of compounds of the invention, human recombinant histamine H1 receptor expressed in Chinese hamster ovary (CHO) cells (De Backer, M. D. et al., Biochem. Biophys. Res. Comm. 197(3):1601, 1993) in a modified Tris-HCl buffer (50 mM Tris-HCl, pH 7.4, 2 mM MgCl2, 100 mM NaCl, 250 mM Sucrose) was used. Compounds of the invention were incubated with 1.2 nM [^3H]Pyrilamine for 180 min. at 25° C. Non-specific binding was estimated in the presence of 1 μM pyrilamine. Receptor proteins were filtered and washed, the filters were then counted to determine [^3H]Pyrilamine specifically bound. Compounds were screened at 1 μM or lower, using 1% DMSO as vehicle. Biochemical assay results are presented as the percent inhibition of specific binding in Table 8.

[1] = target: human dopamine D2L receptor (Homo sapiens, UniProt P14416); assay: Dopamine D2L radioligand binding ([3H]Spiperone); settings: compound at 1 μM; […] [3H]Spiperone; read-out: Inhibition of ligand binding, Dopamine D2L (percent inhibition of specific binding)
Chain of human dopamine D2L receptor (P14416 whole entry): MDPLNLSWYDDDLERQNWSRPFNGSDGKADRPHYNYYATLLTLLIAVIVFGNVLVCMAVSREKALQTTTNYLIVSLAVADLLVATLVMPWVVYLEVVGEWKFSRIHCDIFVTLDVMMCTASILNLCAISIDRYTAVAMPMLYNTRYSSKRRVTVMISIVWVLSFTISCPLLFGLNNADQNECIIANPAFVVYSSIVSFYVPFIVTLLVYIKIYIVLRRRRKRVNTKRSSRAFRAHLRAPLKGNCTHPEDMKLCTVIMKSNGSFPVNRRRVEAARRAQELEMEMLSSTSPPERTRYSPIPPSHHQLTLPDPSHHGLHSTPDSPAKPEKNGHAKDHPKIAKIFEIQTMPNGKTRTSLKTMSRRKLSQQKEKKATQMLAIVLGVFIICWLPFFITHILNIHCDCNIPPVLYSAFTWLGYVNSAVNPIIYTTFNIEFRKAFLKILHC
Description: Non-specific binding was estimated in the presence of […] Haloperidol. Receptor proteins were filtered and washed, the filters were then counted to determine [^3H]Spiperone specifically bound. […] Biochemical assay results are presented as the percent inhibition of specific binding in Table 9.

Chain of histamine receptor H1 (P35367 whole entry): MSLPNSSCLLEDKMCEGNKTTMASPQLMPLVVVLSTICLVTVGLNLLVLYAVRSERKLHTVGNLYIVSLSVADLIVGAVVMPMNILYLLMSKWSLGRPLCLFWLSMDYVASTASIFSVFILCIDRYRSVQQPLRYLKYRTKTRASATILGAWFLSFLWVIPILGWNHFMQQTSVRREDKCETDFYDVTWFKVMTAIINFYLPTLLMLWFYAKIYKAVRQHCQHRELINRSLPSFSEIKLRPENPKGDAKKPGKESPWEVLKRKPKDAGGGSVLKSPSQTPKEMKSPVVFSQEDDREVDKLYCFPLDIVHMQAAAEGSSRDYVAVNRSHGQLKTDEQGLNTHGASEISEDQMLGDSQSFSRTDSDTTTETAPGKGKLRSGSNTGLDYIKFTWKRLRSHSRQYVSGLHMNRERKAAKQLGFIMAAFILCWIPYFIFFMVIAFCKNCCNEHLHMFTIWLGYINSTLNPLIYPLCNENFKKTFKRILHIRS

Row | Structure (SMILES) | inhibition at 1 µM (histamine receptor H1) | inhibition at 1 µM [1]
1 | Cc1ccc2c(c1)c1c(n2C(C)(C)C(O)c2ccccc2)CCN(C)C1 (centres unmarked) [Compound No. 467, 2-(2,8-dimethyl-3,4-dihydro-1H-pyrido[4,3-b]indol-5(2H)-yl)-2-methyl-1-phenylpropan-1-ol] | 54% | 7%
2 | Cc1ccc2c(c1)c1c(n2C(C)C(O)c2ccccc2)CCN(C)C1 (centres unmarked) [Compound No. 468, 2-(2,8-dimethyl-3,4-dihydro-1H-pyrido[4,3-b]indol-5(2H)-yl)-1-phenylpropan-1-ol] | 82% | 12%
3 | C/C(=C\n1c2c(c3cc(C)ccc31)CNCC2)c1cc[n+](C)cc1 [Compound No. 471, (E)-1-methyl-4-(1-(8-methyl-3,4-dihydro-1H-pyrido[4,3-b]indol-5(2H)-yl)prop-1-en-2-yl)pyridinium] | 2% | 2%
4 | CNC(=O)c1cccc(/C(C)=C/n2c3c(c4cc(C)ccc42)CN(C)CC3)c1 [Compound No. 472, (E)-3-(1-(2,8-dimethyl-3,4-dihydro-1H-pyrido[4,3-b]indol-5(2H)-yl)prop-1-en-2-yl)-N-methylbenzamide] | 21% | 53%
5 | C/C(=C\n1c2c(c3cc(C)ccc31)CN(C)CC2)c1cccc(S(C)(=O)=O)c1 [Compound No. 473, (E)-2,8-dimethyl-5-(2-(3-(methylsulfonyl)phenyl)prop-1-enyl)-2,3,4,5-tetrahydro-1H-pyrido[4,3-b]indole] | 35% | 59%
6 | CSc1cccc(/C(C)=C/n2c3c(c4cc(C)ccc42)CN(C)CC3)c1 [Compound No. 474, (E)-2,8-dimethyl-5-(2-(3-(methylthio)phenyl)prop-1-enyl)-2,3,4,5-tetrahydro-1H-pyrido[4,3-b]indole] | 98% | 53%
7 | CN1CCc2c(c3cc(Cl)ccc3n2C#Cc2ccc(C(F)(F)F)nc2)C1 [Compound No. 486, 8-chloro-2-methyl-5-((6-(trifluoromethyl)pyridin-3-yl)ethynyl)-2,3,4,5-tetrahydro-1H-pyrido[4,3-b]indole] | 22% | 14%
8 | CCCc1ccc(C#Cn2c3c(c4cc(Cl)ccc42)CN(C)CC3)cn1 [Compound No. 487, 8-chloro-2-methyl-5-((6-propylpyridin-3-yl)ethynyl)-2,3,4,5-tetrahydro-1H-pyrido[4,3-b]indole] | 75% | 17%
9 | CNC(=O)c1ccc(C#Cn2c3c(c4cc(C)ccc42)CN(C)CC3)cc1F [Compound No. 488, 4-((2,8-dimethyl-3,4-dihydro-1H-pyrido[4,3-b]indol-5(2H)-yl)ethynyl)-2-fluoro-N-methylbenzamide] | 9% | 19%
10 | Cc1ccc2c(c1)c1c(n2C#Cc2cccc(N(C)C)c2)CCN(C)C1 [Compound No. 489, 3-((2,8-dimethyl-3,4-dihydro-1H-pyrido[4,3-b]indol-5(2H)-vyl)ethynyl)-N,N-dimethylaniline] | 13% | 9%
11 | Cc1ccc2c(c1)c1c(n2C#Cc2ccccc2)CCN(C)C1 [Compound No. 490, 2,8-dimethyl-5-(phenylethynyl)-2,3,4,5-tetrahydro-1H-pyrido[4,3-b]indole] | 18% | 74%
12 | Cc1ccc2c(c1)c1c(n2C#Cc2ccsc2)CCN(C)C1 [Compound No. 491, 2,8-dimethyl-5-(thiophen-3-ylethynyl)-2,3,4,5-tetrahydro-1H-pyrido[4,3-b]indole] | 52% | 82%
13 | Cc1ccc2c(c1)c1c(n2C#Cc2ccoc2)CCN(C)C1 [Compound No. 492, 5-(furan-3-ylethynyl)-2,8-dimethyl-2,3,4,5-tetrahydro-1H-pyrido[4,3-b]indole] | 68% | 60%
14 | Cc1ccc2c(c1)c1c(n2C#Cc2cccs2)CCN(C)C1 [Compound No. 493, 2,8-dimethyl-5-(thiophen-2-ylethynyl)-2,3,4,5-tetrahydro-1H-pyrido[4,3-b]indole] | 69% | 56%
15 | COc1ccc(C#Cn2c3c(c4cc(C)ccc42)CN(C)CC3)cn1 [Compound No. 494, 5-((6-methoxypyridin-3-yl)ethynyl)-2,8-dimethyl-2,3,4,5-tetrahydro-1H-pyrido[4,3-b]indole] | 2% | 13%
16 | Cc1ccc2c(c1)c1c(n2C#Cc2ccncc2)CCN(C)C1 [Compound No. 495, 2,8-dimethyl-5-(pyridin-4-ylethynyl)-2,3,4,5-tetrahydro-1H-pyrido[4,3-b]indole] | 52% | 58%

Row | Structure (SMILES) | inhibition at 1 µM (histamine receptor H1) | inhibition at 1 µM [1]
17 | Cc1ccc2c(c1)c1c(n2C#Cc2ccc(C3CC3)nc2)CCN(C)C1 [Compound No. 496, 5-((6-cyclopropylpyridin-3-yl)ethynyl)-2,8-dimethyl-2,3,4,5-tetrahydro-1H-pyrido[4,3-b]indole] | 15% | 25%
18 | Cc1ccc2c(c1)c1c(n2C#Cc2cncn2C)CCN(C)C1 [Compound No. 497, 2,8-dimethyl-5-((1-methyl-1H-imidazol-5-yl)ethynyl)-2,3,4,5-tetrahydro-1H-pyrido[4,3-b]indole] | 17% | 14%
19 | Cc1ccc2c(c1)c1c(n2C#Cc2cscn2)CCN(C)C1 [Compound No. 498, 4-((2,8-dimethyl-3,4-dihydro-1H-pyrido[4,3-b]indol-5(2H)-vyl)ethynyl)thiazole] | 65% | 9%
20 | Cc1ccc2c(c1)c1c(n2C#Cc2ccncn2)CCN(C)C1 [Compound No. 499, 2,8-dimethyl-5-(pyrimidin-4-ylethynyl)-2,3,4,5-tetrahydro-1H-pyrido[4,3-b]indole] | 26% | 18%
21 | C/C(=C/n1c2c(c3cc(Cl)ccc31)CN(C)CC2)c1ccncc1 [compound 384, (Z)-8-chloro-2-methyl-5-(2-(pyridin-4-yl)prop-1-enyl)-2,3,4,5-tetrahydro-1H-pyrido[4,3-b]indole] | 66% | 91%
22 | C/C(=C\n1c2c(c3cc(Cl)ccc31)CN(C)CC2)c1cnc(C)cn1 [compound 385, (E)-8-chloro-2-methyl-5-(2-(5-methylpyrazin-2-yl)prop-1-enyl)-2,3,4,5-tetrahydro-1H-pyrido[4,3-b]indole] | 68% | 51%
23 | C/C(=C\n1c2c(c3cc(C)ccc31)CN(C)CC2)c1cnc(C)cn1 [compound 386, (E)-2,8-dimethyl-5-(2-(5-methylpyrazin-2-yl)prop-1-enyl)-2,3,4,5-tetrahydro-1H-pyrido[4,3-b]indole] | 8% | 25%
24 | C/C(=C\n1c2c(c3cc(C)ccc31)CN(C)CC2)c1ccsc1 [compound 387, (E)-2,8-dimethyl-5-(2-(thiophen-3-yl)prop-1-enyl)-2,3,4,5-tetrahydro-1H-pyrido[4,3-b]indole] | 84% | 99%
25 | C/C(=C\n1c2c(c3cc(Cl)ccc31)CN(C)CC2)c1ccsc1 [compound 388, (E)-8-chloro-2-methyl-5-(2-(thiophen-3-yl)prop-1-enyl)-2,3,4,5-tetrahydro-1H-pyrido[4,3-b]indole] | 100% | 99%
26 | C/C(=C\n1c2c(c3cc(C)ccc31)CN(C)[C@@H](C)C2)c1ccncc1 [compound 389, (S,E)-2,3,8-trimethyl-5-(2-(pyridin-4-yl)prop-1-enyl)-2,3,4,5-tetrahydro-1H-pyrido[4,3-b]indole] | 39% | 49%
27 | C/C(=C\n1c2c(c3cc(C)ccc31)CN(C)[C@H](C)C2)c1ccncc1 [compound 390, (R,E)-2,3,8-trimethyl-5-(2-(pyridin-4-yl)prop-1-enyl)-2,3,4,5-tetrahydro-1H-pyrido[4,3-b]indole] | 49% | 97%
28 | C/C(=C\n1c2c(c3cc(Cl)ccc31)CN(C)[C@@H](C)C2)c1ccncc1 [compound 391, (S,E)-8-chloro-2,3-dimethyl-5-(2-(pyridin-4-yl)prop-1-enyl)-2,3,4,5-tetrahydro-1H-pyrido[4,3-b]indole] | 84% | 72%
29 | C/C(=C\n1c2c(c3cc(Cl)ccc31)CN(C)[C@H](C)C2)c1ccncc1 [compound 392, (R,E)-8-chloro-2,3-dimethyl-5-(2-(pyridin-4-yl)prop-1-enyl)-2,3,4,5-tetrahydro-1H-pyrido[4,3-b]indole] | 84% | 99%
30 | C/C(=C\n1c2c(c3cc(Cl)ccc31)CN(C)CC2)c1cc(C)nc(C)c1 [compound 393, (E)-8-chloro-5-(2-(2,6-dimethylpyridin-4-yl)prop-1-enyl)-2-methyl-2,3,4,5-tetrahydro-1H-pyrido[4,3-b]indole] | 69% | 99%
31 | C/C(=C\n1c2c(c3cc(Cl)ccc31)CN(C)CC2)c1ccnc(C)c1 [compound 394, (E)-8-chloro-2-methyl-5-(2-(2-methylpyridin-4-yl)prop-1-enyl)-2,3,4,5-tetrahydro-1H-pyrido[4,3-b]indole] | 75% | 99%
